The text below walks through data of US20230331655A1, “HYDROXYN[…] AND METHODS OF USE THEREOF” (UNIVERSITY OF MARYLAND, BALTIMORE, priority 2020, published 2023).

“Also recorded” adds a separate entry of the source.

Series [1] relates to Male C57BL/6J mice. In words: naloxone-precipitated morphine withdrawal symptoms. Conditions: 10 mg/kg i.p. 10 min before naloxone 1 mg/kg. The format is in vivo, mouse. The source says: (§1) Animals: Male C57BL/6J mice (8 weeks old, Jackson laboratories) were kept in a temperature and humidity-controlled environment and maintained in a 12:12 hr light/dark cycle (lights on at 7:00 AM). Mice were singly-housed for all the studies due to increased aggression following opioid administration and were randomly assigned to treatment groups.
(§2) Drugs: (2R,6R)-HNK hydrochloride was synthesized and characterized. Absolute and relative stereochemistry for (2R,6R)-HNK was confirmed by small molecule x-ray crystallography. For the intraperitoneal injections, drugs were dissolved in 0.9% saline and given in a volume of 5 ml/kg.
Precipitated morphine withdrawal symptoms: Mice were given a single injection of saline or morphine (10 mg/kg) in their home cages for 4 days. On Day 5, 1 hr and 50 min after their last saline or morphine injection, mice were given a single injection of saline or (2R,6R)-HNK (10 mg/kg) and 10 min later were given another injection of either saline or the opioid receptor antagonist naloxone (1 mg/kg, i.p.). The mice were immediately placed in plexiglass cylinders and their behaviors were monitored and live-scored for 25 min by an experimenter blind to any treatment conditions. Behaviors that were scored included: number of jumps (escape behavior), number of paw tremors, and occurrence (1 point) or not in each 5-min interval for the following symptoms: stereotypic sniffing, stereotypic rearing, eye ptosis, piloerection, head nodding and swallowing (FIGS. 9A-9H). An average score for each animal was given after analyzing all the withdrawal symptoms (FIG. 10).

For series [2] the following is noted: 10 mg/kg, i.p.; cited from earlier work.
For series [3], the system named is Male C57BL/6J mice. As to the kind of experiment: sub-effective dose morphine conditioned-place preference after chronic social defeat stress. In kind it is in vivo, mouse. Conditions: single 10 mg/kg i.p. before conditioning, morphine 0.25 mg/kg.
Text: as §1, §2
Social defeats: Socially defeated mice underwent a 10-day chronic social defeat stress paradigm. […]
Social interaction test: Following the social defeats, on day 11, test mice were screened for susceptibility in a social interaction/avoidance choice test. […] The time spent interacting (nose within close proximity of the cage) with the “stranger” mouse versus the empty cage was analyzed using TopScan video tracking software (CleverSys, Reston, Virginia). […]
Sucrose preference: Following the social interaction test, mice were assessed for sucrose preference in their home cages. […] Sucrose preference was measured (day 12) and were assigned to two groups: resilient (sucrose preference >70%) and susceptible (sucrose preference <55%). […]

Turning to `N[C@@]1(c2ccccc2Cl)CCC[C@@H](O)C1=O` [(2R,6R)-HNK, (2R,6R)-hydroxynorketamine], in series [1], the “average precipitated withdrawal symptoms of morphine” value is given as “overall reduction”, the escape-related jumping behavior entry is “increasing the escape-related jumping behavior”, the paw tremors entry is “decreased paw tremors” and the “somatic symptoms following naloxone-precipitated morphine withdrawal” value is “decreases somatic symptoms”. Further, in series [2], the “estimated concentration in brain tissue” value is under 20 µmol/kg and the “estimated concentration in the extracellular hippocampal space” value is under 10 µM. The “morphine-induced place preference (conditioning to sub-effective dose of morphine)” value in series [3] (stress susceptible mice) is reported as “prevents conditioning; also recorded: prevented morphine-induced place preference”. Besides, in series [3] (stress-resilient mice), the “morphine-induced place preference (conditioning to sub-effective dose of morphine)” value is “no significant effect”.
